Results taken from patent US5710145A, “Protein kinase C inhibitor” (priority 1996, dated 1998).
Counter-ions that a name gives are not always drawn.

Experiments:
Protein Kinase C = test: Protein kinase C inhibitor activity / selectivity (Calcium Calmodulin Dependent Protein Kinase, Casein Protein Kinase II, cAMP-Dependent Protein Kinase Catalytic Subunit and Protein-Tyrosine Kinase assays); type: biochemical
Method: As previously stated, the compound of the present invention are active as selective Protein Kinase C inhibitors. The activity of compound is disclosed in Heath et al., EP 0 657 458, published on Jun. 14, 1995. The activity was determined in the Calcium Calmodulin Dependent Protein Kinase Assay, Casein Protein Kinase II assay, cAMP-Dependent Protein Kinase Catalytic Subunit assay and the Protein-Tyrosine Kinase assay. […] Conditions recognized in the art include: diabetes mellitus and its complications (including retinopathy, neuropathy and nephropathy), ischemia, inflammation, central nervous system disorders, cardiovascular disease, Alzheimer's disease, dermatological disease and cancer.

[1] = Karl-Fisher (coulometric) water content of salts; type: physicochemical
Method: (§1) The salts were examined for hygroscopicity at relative humidities (RH) of 27%, 35%, 65% and 80% and are depicted in Table IV. The samples were subjected to vacuum initially to establish a reference point for the RH data. The amount of water contained in each salt was also determined by Karl-Fisher (coulometric).

[2] = Oral bioavailability of HCl and mesylate salts in dogs, single 20 mg/kg dose, cross-over; type: in vivo, Male Beagle Dogs
Method: Because the hydrochloride salt is the most common pharmaceutical salt and is specifically disclosed in Heath et al., EP 0 657 458, published on Jun. 14, 1995 (Example 5), a biological comparison of the mesylate and HCl salt was carried out. […] The bioavailability of the salt forms was measured in four Male Beagle Dogs by orally administering a single 20 mg/kg dose of the HCl and the claimed mesylate salt in a 10% acacia suspension. One week washout period was allowed between doses. Doses were administered in a cross-over design (2 dogs/salt/study dog). The plasma concentration of the active compound as well as an active metabolite was monitored. […] This represents an approximately 260% increase in plasma concentration of the compound and the metabolite.
The plasma concentration of the compound as well as the metabolite was also plotted as a function of time during the study. The ratio of the area under the concentration curve (AUC) represents a measure of bioavailability of the compound to the patient. The AUC ratio for the HCl salt and the claimed mesylate was calculated and is depicted in Table VI.

physchem = type: physicochemical; conditions: for pH (saturated aq Solution): saturated aqueous solution
Method: The aqueous solubility of each salt was determined by UV analysis (Table II) and compared. […] The high pH observed with the succinate and acetate salt indicated the presence of untitrated free base.

[3] = Hygroscopicity of salts at relative humidities; type: physicochemical; conditions: for Hygroscopicity, RH 27%: 27% RH; for Hygroscopicity, RH 35%: 35% RH; for Hygroscopicity, RH 65%: 65% RH; for Hygroscopicity, RH 80%: 80% RH
Method: as §1

[4] = Thermogravimetric analysis (TGA) of salts; type: physicochemical; conditions: for TGA weight loss 20-100° C.: heated 20-100° C.; for TGA weight loss 100-200° C.: heated 100-200° C.
Method: Each salt was analyzed by TGA, DSC and Mettler hot stage microscopy and compared (Table III). […] The samples were also examined by hot stage microscopy using a Mettler hot stage.

Row | SMILES | K. F. (Karl-Fisher water) [1] | pH (saturated aq Solution) (physchem) | Aqueous solubility (base) (physchem; water) | Hygroscopicity, RH 27% [3] | Hygroscopicity, RH 35% [3] | Hygroscopicity, RH 65% [3] | Hygroscopicity, RH 80% [3] | Hygroscopicity, Vacuum [3] | TGA weight loss 20-100° C. [4] | Aqueous solubility (salt) (physchem; water) | TGA weight loss 100-200° C. [4] | also measured
1 | CN(C)C[C@@H]1CCn2cc(c3ccccc32)C2=C(C(=O)NC2=O)c2cn(c3ccccc23)CCO1 [Mesylate, (S)-13-[(dimethylamino)methyl]-10,11,14,15-tetrahydro-4,9:16,21-dimetheno-1H, 13H-dibenzo[E,K]pyrrolo[3,4-H][1,4,13]oxadiazacyclohexadecine-1,3(2H)-dione] | 3.6% | 4.69 | 1460 μg base/mL H2 O | 98.5 wt % initial | 99.4 wt % initial | 100.7 wt % initial | 104.4 wt % initial | 99.0 wt % initial | 3.97 % wt loss |  |  | IC50 (Protein Kinase C): < 10 µM; activity and isozyme selectivity (Protein Kinase C): active and isozyme selective; increase in plasma concentration of the compound and the metabolite ([2]; dog, in vivo, po, 20 mg/kg): approximately 260%; plasma concentrations of compound and metabolite vs HCl salt ([2]; each dog, equivalent oral dose): Higher plasma concentrations; effect of chloride on aqueous solubility (physchem): drops markedly with the addition of chloride; effect of pH on aqueous solubility (physchem): drops markedly at either higher or lower pH; pH of optimal aqueous solubility (physchem): 4.0 to 5.0 pH; aqueous solubility (physchem; water): 1.76 mg/mL; solubility (physchem; water, pH 4.5, water, aqueous solubility at most preferred pH): 2.25 mg/mL
2 | CN(C)C[C@@H]1CCn2cc(c3ccccc32)C2=C(C(=O)NC2=O)c2cn(c3ccccc23)CCO1 [Succinate] | 0.2% | 7.72 | 0.4 μg base/mL H2 O | 98.5 wt % initial | 99.1 wt % initial | 100.0 wt % initial | 100.5 wt % initial | 99.3 wt % initial | 0.73 % wt loss | 0.5 μg salt/mL H2 O | 1.90 % wt loss | 
3 | CN(C)C[C@@H]1CCn2cc(c3ccccc32)C2=C(C(=O)NC2=O)c2cn(c3ccccc23)CCO1 [Tartrate] | 5.1% | 3.77 | 54 μg base/mL H2 O | 98.2 wt % initial | 101.3 wt % initial | 103.8 wt % initial | 105.4 wt % initial | 97.9 wt % initial | 5.50 % wt loss | 71 μg salt/mL H2 O |  | TGA weight loss 20-100° C. ([4]; listed as tartrate): 5.50 % wt loss
4 | CN(C)C[C@@H]1CCn2cc(c3ccccc32)C2=C(C(=O)NC2=O)c2cn(c3ccccc23)CCO1 [Sulfate] | 4.9% | 2.57 | 12 μg base/mL H2 O | 98.4 wt % initial | 99.8 wt % initial | 100.9 wt % initial | 101.9 wt % initial | 98.9 wt % initial | 5.50 % wt loss | 14 μg salt/mL H2 O |  | TGA weight loss 20-100° C. ([4]; listed as sulfate): 5.50 % wt loss
5 | CN(C)C[C@@H]1CCn2cc(c3ccccc32)C2=C(C(=O)NC2=O)c2cn(c3ccccc23)CCO1 [Acetate] | 0.3% | 7.80 | 0.9 μg base/mL H2 O | 98.6 wt % initial | 99.2 wt % initial | 100.2 wt % initial | 100.6 wt % initial | 99.4 wt % initial | 0.77 % wt loss | 1 μg salt/mL H2 O | 1.44 % wt loss | 
6 | CN(C)C[C@@H]1CCn2cc(c3ccccc32)C2=C(C(=O)NC2=O)c2cn(c3ccccc23)CCO1 [HCl] | 1.3% | 4.98 | 249 μg base/mL H2 O | 98.2 wt % initial | 99.3 wt % initial | 100.4 wt % initial | 100.6 wt % initial | 98.7 wt % initial | 1.42 % wt loss |  | 0.9 % wt loss | aqueous solubility (physchem; water): 0.268 mg/mL
7 | CN(C)C[C@@H]1CCn2cc(c3ccccc32)C2=C(C(=O)NC2=O)c2cn(c3ccccc23)CCO1 [Phosphate] | 4.6% | 3.78 | 609 μg base/mL H2 O | 98.6 wt % initial | 102.6 wt % initial | 105.5 wt % initial | 106.6 wt % initial | 98.2 wt % initial | 5.50 % wt loss | 736 μg salt/mL H2 O |  | hygroscopicity ranking ([3]; vacuum to 80% RH): most hygroscopic; TGA weight loss 20-100° C. ([4]; listed as phosphate): 5.50 % wt loss
